Data reported in PubChem BioAssay (NCI).
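All cell lines were grown in 96-well plates and treated with compound for 48 hours. At the TGI there is no net growth.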

Columns and labels:
Assay in all cases: NCI anticancer screen, dose series, 48 h
MDA-MB-231 breast = test system: MDA-MB-231 breast
MOLT-4 leukemia = test system: MOLT-4 leukemia
M14 melanoma = test system: M14 melanoma
SK-OV-3 ovarian = test system: SK-OV-3 ovarian
T-47D breast = test system: T-47D breast
RPMI-8226 leukemia = test system: RPMI-8226 leukemia
PC-3 prostate = test system: PC-3 prostate
SK-MEL-2 melanoma = test system: SK-MEL-2 melanoma
DU-145 prostate = test system: DU-145 prostate
SNB-75 CNS = test system: SNB-75 CNS
TK-10 renal = test system: TK-10 renal
NCI-H522 lung = test system: NCI-H522 lung
OVCAR-3 ovarian = test system: OVCAR-3 ovarian
NCI-H23 lung = test system: NCI-H23 lung
HCT-116 colon = test system: HCT-116 colon
OVCAR-4 ovarian = test system: OVCAR-4 ovarian
MDA-MB-435 = test system: MDA-MB-435
ACHN renal = test system: ACHN renal
SK-MEL-28 melanoma = test system: SK-MEL-28 melanoma
HCC-2998 colon = test system: HCC-2998 colon
HT29 colon = test system: HT29 colon
NCI-H460 lung = test system: NCI-H460 lung
SF-268 CNS = test system: SF-268 CNS
U251 CNS = test system: U251 CNS
BT-549 breast = test system: BT-549 breast
COLO 205 colon = test system: COLO 205 colon
UACC-257 melanoma = test system: UACC-257 melanoma
786-0 renal = test system: 786-0 renal
A498 renal = test system: A498 renal
NCI/ADR-RES ovarian = test system: NCI/ADR-RES ovarian
K-562 leukemia = test system: K-562 leukemia
SK-MEL-5 melanoma = test system: SK-MEL-5 melanoma
KM12 colon = test system: KM12 colon
UO-31 renal = test system: UO-31 renal
MALME-3M melanoma = test system: MALME-3M melanoma
EKVX NSCLC = test system: EKVX NSCLC
RXF 393 renal = test system: RXF 393 renal
HCT-15 colon = test system: HCT-15 colon
UACC-62 melanoma = test system: UACC-62 melanoma
HS 578T breast = test system: HS 578T breast
OVCAR-8 ovarian = test system: OVCAR-8 ovarian
MCF7 breast = test system: MCF7 breast
SF-295 CNS = test system: SF-295 CNS
SNB-19 CNS = test system: SNB-19 CNS
CAKI-1 renal = test system: CAKI-1 renal
IGROV1 ovarian = test system: IGROV1 ovarian
HOP-62 NSCLC = test system: HOP-62 NSCLC
HOP-92 NSCLC = test system: HOP-92 NSCLC
MDA-N = test system: MDA-N
A549 NSCLC = test system: A549 NSCLC
OVCAR-5 ovarian = test system: OVCAR-5 ovarian
SW-620 colon = test system: SW-620 colon

Measured: TGI

CC(C)(C)OC(=O)NCCC1CNc2ccccc21 (configuration not stated)
> 100 µM: all assays above
